Measured values as given in US10988477B2 (Merck Patent GmbH, priority 2018, dated 2021).

What was measured:
[1] = biological target: intracellular GCN2 (phosphorylation of the GCN2 substrate eIF2α) (Homo sapiens, UniProt Q9P2K8); assay: GCN2 cellular inhibition assay (AlphaScreen SureFire P-eIF2α Ser51, borrelidin-treated U2OS cells); format: cell-based; settings: biomarker assay, phosphorylated eIF2α Ser51 in borrelidin-treated U2OS cells
Method in brief: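 Read-out: AlphaScreen SureFire phospho-eIF2α (Ser51) signal in U2OS lysates. Cells get 4-fold compound dilutions (top 40 μM final) plus 10 μM borrelidin, 1 h, 37 °C. Percent inhibition is relative to borrelidin-alone controls.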

GCN2 kinase = GCN2 kinase (Homo sapiens, UniProt Q9P2K8); assay: GCN2 enzyme inhibition assay (Transcreener ADP2 fluorescence polarization); format: biochemical; settings: 280 μM ATP
Method in brief: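 Kinase activity is followed as ADP formation, measured by fluorescence polarization, using 4 nM enzyme with 280 μM ATP and 200 μM (RS)7 peptide at pH 7.5 and 25 °C for 1 h. Values come from a non-linear tight-binding fit.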

[2] = compounds of Formula II, 4 nM GCN2 kinase
[3] = Enzyme activity for compounds of Formula IV, Ki(app), 25° C.

Sequence of GCN2 kinase (Q9P2K8 whole entry): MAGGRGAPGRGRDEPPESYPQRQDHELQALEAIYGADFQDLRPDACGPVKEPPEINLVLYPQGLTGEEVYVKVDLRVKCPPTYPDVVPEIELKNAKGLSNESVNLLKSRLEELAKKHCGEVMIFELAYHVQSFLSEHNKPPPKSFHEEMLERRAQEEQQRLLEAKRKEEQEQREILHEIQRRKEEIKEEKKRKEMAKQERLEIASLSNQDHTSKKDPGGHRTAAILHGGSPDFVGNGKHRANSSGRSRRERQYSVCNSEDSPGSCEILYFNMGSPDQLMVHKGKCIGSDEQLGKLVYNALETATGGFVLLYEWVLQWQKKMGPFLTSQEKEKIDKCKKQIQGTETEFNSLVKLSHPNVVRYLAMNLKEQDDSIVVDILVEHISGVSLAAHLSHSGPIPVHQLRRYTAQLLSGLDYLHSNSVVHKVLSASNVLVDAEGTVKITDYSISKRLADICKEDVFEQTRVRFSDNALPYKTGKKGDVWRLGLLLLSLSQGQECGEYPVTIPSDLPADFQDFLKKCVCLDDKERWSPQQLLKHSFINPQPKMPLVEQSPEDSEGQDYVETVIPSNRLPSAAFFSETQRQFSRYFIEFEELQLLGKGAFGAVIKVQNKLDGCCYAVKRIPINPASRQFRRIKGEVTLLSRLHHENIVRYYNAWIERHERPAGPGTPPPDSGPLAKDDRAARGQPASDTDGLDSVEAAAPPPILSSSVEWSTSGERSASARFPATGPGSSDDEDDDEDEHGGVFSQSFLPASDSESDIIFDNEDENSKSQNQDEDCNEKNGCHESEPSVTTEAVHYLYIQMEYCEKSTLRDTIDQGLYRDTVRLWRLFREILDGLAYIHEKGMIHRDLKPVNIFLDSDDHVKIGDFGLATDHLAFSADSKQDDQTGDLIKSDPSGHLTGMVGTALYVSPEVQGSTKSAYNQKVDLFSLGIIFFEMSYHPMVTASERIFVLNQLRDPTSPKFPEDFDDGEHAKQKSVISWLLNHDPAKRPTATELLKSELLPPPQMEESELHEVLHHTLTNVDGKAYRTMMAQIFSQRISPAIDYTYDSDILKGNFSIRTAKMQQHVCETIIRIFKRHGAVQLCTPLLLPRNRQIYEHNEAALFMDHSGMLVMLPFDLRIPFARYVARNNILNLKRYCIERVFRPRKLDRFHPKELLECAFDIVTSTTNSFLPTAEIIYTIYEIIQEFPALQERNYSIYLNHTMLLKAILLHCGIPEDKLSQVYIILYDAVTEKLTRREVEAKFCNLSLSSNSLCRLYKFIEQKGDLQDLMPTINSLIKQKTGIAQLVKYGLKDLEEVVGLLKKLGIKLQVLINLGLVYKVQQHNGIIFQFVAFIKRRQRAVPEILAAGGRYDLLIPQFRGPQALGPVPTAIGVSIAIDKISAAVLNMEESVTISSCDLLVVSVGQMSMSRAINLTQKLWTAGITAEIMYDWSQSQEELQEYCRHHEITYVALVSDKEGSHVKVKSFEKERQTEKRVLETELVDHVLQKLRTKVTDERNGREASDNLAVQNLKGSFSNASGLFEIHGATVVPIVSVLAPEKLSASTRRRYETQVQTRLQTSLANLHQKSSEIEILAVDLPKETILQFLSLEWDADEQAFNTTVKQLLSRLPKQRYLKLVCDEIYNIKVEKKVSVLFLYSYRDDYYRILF
Sequence of intracellular GCN2 (phosphorylation of the GCN2 substrate eIF2α) (Q9P2K8 whole entry): as above

Row | SMILES | IC50 ([1]; compounds of Formula II) | Ki (GCN2 kinase; [2]) | IC50 ([1]; compounds of Formula IV) | Ki (GCN2 kinase; [3]) | IC50 (GCN2 kinase; [2])
1 | CC1CC(C)(O)C(CNS(C)(=O)=O)CN1c1cc(-c2cnc3ccc(C(F)F)nn23)ncn1 (stereo not shown) [II-367, N-((1-(6-(6-(Difluoromethyl)imidazo[1,2-b]pyridazin-3-yl)pyrimidin-4-yl)-4-hydroxy-4,6-dimethylpiperidin-3-yl)methyl)methanesulfonamide] | 500 to 5000 nM | 10 to 1000 nM | – | – | –
2 | CS(=O)(=O)NC[C@@H]1CN(c2cc(-c3cnc4ccc(C(F)F)nn34)ccn2)CCO1 [II-121, N-[[(2S)-4-[4-[6-(Difluoromethyl)imidazo[1,2-b]pyridazin-3-yl]-2-pyridyl]morpholin-2-yl]methyl]methanesulfonamide] | < 500 nM | < 10 nM | – | – | –
3 | CC(NS(C)(=O)=O)C1CN(c2ccnc(-c3cnc4cnc(C(F)F)cn34)n2)CCO1 (stereo not shown) [IV-62, N-(1-(4-(2-(6-(Difluoromethyl)imidazo[1,2-a]pyrazin-3-yl)pyrimidin-4-yl)morpholin-2-yl)ethyl)methanesulfonamide] | – | – | > 5000 nM | 100 to 1000 nM | –
4 | CS(=O)(=O)NCC1CCCN(c2cc(-c3cnc4ccc(C(F)F)nn34)cc(C(F)(F)F)n2)C1 (stereo not shown) [II-63, N-((1-(4-(6-(Difluoromethyl)imidazo[1,2-b]pyridazin-3-yl)-6-(trifluoromethyl)pyridin-2-yl)piperidin-3-yl)methyl)methanesulfonamide] | > 5000 nM | < 10 nM | – | – | –
5 | CNc1cc(N2CC(C)NC(c3cn[nH]c3)C2C)nc(-c2cnc3cnc(C(F)(F)F)cn23)n1 (stereo not shown) [IV-578, 6-(2,5-Dimethyl-3-(1H-pyrazol-4-yl)piperazin-1-yl)-N-methyl-2-(6-(trifluoromethyl)imidazo[1,2-a]pyrazin-3-yl)pyrimidin-4-amine] | – | – | 500 to 5000 nM | < 10 nM | –
6 | CS(=O)(=O)NCC1CN(c2cc(-c3cnc4ccc(C(F)F)nn34)ncn2)CC2(CC2)O1 (stereo not shown) [II-375, N-((7-(6-(6-(Difluoromethyl)imidazo[1,2-b]pyridazin-3-yl)pyrimidin-4-yl)-4-oxa-7-azaspiro[2.5]octan-5-yl)methyl)methanesulfonamide] | < 500 nM | < 10 nM | – | – | –
7 | NC(=O)NCC1CCCN(c2cc(-c3cnc4ccc(C(F)F)nn34)ncn2)C1 (stereo not shown) [II-215, 1-((1-(6-(6-(Difluoromethyl)imidazo[1,2-b]pyridazin-3-yl)pyrimidin-4-yl)piperidin-3-yl)methyl)urea] | 500 to 5000 nM | 10 to 1000 nM | – | – | –
8 | CN([C@H]1CCN(c2ccnc(-c3cnc4cnc(C(F)F)cn34)n2)C1)S(C)(=O)=O [IV-125, (S)—N-(1-(2-(6-(Difluoromethyl)imidazo[1,2-a]pyrazin-3-yl)pyrimidin-4-yl)pyrrolidin-3-yl)-N-methylmethanesulfonamide] | – | – | > 5000 nM | 100 to 1000 nM | –
9 | CC(C)(O)C1CC(c2cn[nH]c2)CN(c2ccnc(-c3cnc4cnc(C(F)(F)F)cn34)n2)C1 (single isomer, unassigned) [IV-682, 2-(5-(1H-Pyrazol-4-yl)-1-(2-(6-(trifluoromethyl)imidazo[1,2-a]pyrazin-3-yl)pyrimidin-4-yl)piperidin-3-yl)propan-2-ol] | – | – | 500 to 5000 nM | 10 to 100 nM | –
10 | CS(=O)(=O)NCC1CC(N2CC(F)C2)CN(c2cc(-c3cnc4ccc(C(F)F)nn34)ncn2)C1 (stereo not shown) [II-429, N-((1-(6-(6-(Difluoromethyl)imidazo[1,2-b]pyridazin-3-yl)pyrimidin-4-yl)-5-(3-fluoroazetidin-1-yl)piperidin-3-yl)methyl)methanesulfonamide] | > 5000 nM | 10 to 1000 nM | – | – | –
11 | NS(=O)(=O)N1CC2(CCCN(c3cc(-c4cnc5ccc(C(F)F)nn45)ncn3)C2)C1 [II-333, 6-(6-(6-(Difluoromethyl)imidazo[1,2-b]pyridazin-3-yl)pyrimidin-4-yl)-2,6-diazaspiro[3.5]nonane-2-sulfonamide] | 500 to 5000 nM | 10 to 1000 nM | – | – | –
12 | COc1cc(-c2cnc3ccc(C(F)F)nn23)cc(N2CCCC(CNS(C)(=O)=O)C2)n1 (stereo not shown) [II-142, N-((1-(4-(6-(Difluoromethyl)imidazo[1,2-b]pyridazin-3-yl)-6-methoxypyridin-2-yl)piperidin-3-yl)methyl)methanesulfonamide] | 500 to 5000 nM | < 10 nM | – | – | –
13 | OCCC1CCCN(c2cc(-c3cnc4ccc(C(F)F)nn34)ncn2)C1 (stereo not shown) [II-497, 2-(1-(6-(6-(Difluoromethyl)imidazo[1,2-b]pyridazin-3-yl)pyrimidin-4-yl)piperidin-3-yl)ethan-1-ol] | 500 to 5000 nM | 10 to 1000 nM | – | – | –
14 | [O-][S+]1CCN(c2cc(-c3cnc4ccc(C(F)F)nn34)ncn2)CC1 [II-296, 4-(6-(6-(Difluoromethyl)imidazo[1,2-b]pyridazin-3-yl)pyrimidin-4-yl)thiomorpholine 1-oxide] | > 5000 nM | > 1000 nM | – | – | –
15 | FC(F)(F)c1cn2c(-c3nccc(N4CCCC(c5cn[nH]c5)C4)n3)cnc2cn1 (stereo not shown) [IV-59, 3-(4-(3-(1H-Pyrazol-4-yl)piperidin-1-yl)pyrimidin-2-yl)-6-(trifluoromethyl)imidazo[1,2-a]pyrazine] | – | – | < 500 nM | < 10 nM | –
16 | CS(=O)(=O)C1CCCN(c2cc(-c3cnc4ccc(C(F)F)nn34)ncn2)C1 (single isomer, unassigned) [II-529, 6-(Difluoromethyl)-3-(6-(3-(methylsulfonyl)piperidin-1-yl)pyrimidin-4-yl)imidazo[1,2-b]pyridazine] | 500 to 5000 nM | 10 to 1000 nM | – | – | –
17 | CC1NCCN(c2cc(-c3cnc4ccc(C(F)F)nn34)ncn2)C1C (stereo not shown) [II-548, 6-(Difluoromethyl)-3-(6-(2,3-dimethylpiperazin-1-yl)pyrimidin-4-yl)imidazo[1,2-b]pyridazine] | > 5000 nM | > 1000 nM | – | – | –
18 | CC1CCC(CNS(C)(=O)=O)C(C)N1c1cc(-c2cnc3ccc(C(F)F)nn23)ncn1 (stereo not shown) [II-268, N-((1-(6-(6-(Difluoromethyl)imidazo[1,2-b]pyridazin-3-yl)pyrimidin-4-yl)-2,6-dimethylpiperidin-3-yl)methyl)methanesulfonamide] | < 500 nM | < 10 nM | – | – | –
19 | CS(=O)(=O)NC[C@@H]1CN(c2cc(-c3cnc4ccc(C5CC5)nn34)ncn2)CCO1 [II-249, (S)—N-((4-(6-(6-Cyclopropylimidazo[1,2-b]pyridazin-3-yl)pyrimidin-4-yl)morpholin-2-yl)methyl)methanesulfonamide] | 500 to 5000 nM | 10 to 1000 nM | – | – | –
20 | CS(=O)(=O)N1CC2OCCN(c3cc(-c4cnc5ccc(C(F)F)nn45)ncn3)C2C1 (stereo not shown) [II-319, 4-(6-(6-(Difluoromethyl)imidazo[1,2-b]pyridazin-3-yl)pyrimidin-4-yl)-6-(methylsulfonyl)octahydropyrrolo[3,4-b][1,4]oxazine] | > 5000 nM | 10 to 1000 nM | – | – | –
21 | CC1CC(N=S(C)(C)=O)CN(c2cc(-c3cnc4ccc(C(F)(F)F)nn34)ncn2)C1 (stereo not shown) [II-757, dimethyl((5-methyl-1-(6-(6-(trifluoromethyl)imidazo[1,2-b]pyridazin-3-yl)pyrimidin-4-yl)piperidin-3-yl)imino)-16-sulfanone] | < 500 nM | – | – | – | 10 to 1000 nM
22 | CS(=O)(=O)N1CC2CCN(c3cc(-c4cnc5ccc(C(F)F)nn45)ncn3)CC21 (stereo not shown) [II-181, 6-(Difluoromethyl)-3-(6-(8-(methylsulfonyl)-3,8-diazabicyclo[4.2.0]octan-3-yl)pyrimidin-4-yl)imidazo[1,2-b]pyridazine] | > 5000 nM | > 1000 nM | – | – | –
23 | FC(F)(F)c1cn2c(-c3nccc(N4CCCC(c5nccs5)C4)n3)cnc2cn1 (stereo not shown) [IV-675, 2-(1-(2-(6-(Trifluoromethyl)imidazo[1,2-a]pyrazin-3-yl)pyrimidin-4-yl)piperidin-3-yl)thiazole] | – | – | > 5000 nM | 10 to 100 nM | –
